# Experimental data reported in patent US9492426B2, “Mycophenolic acid analogues as anti-tumor chemosensitizing agents” (Texas A & M University System, priority 2011, dated 2016).
# Like-named read-outs stand apart in the source and are kept apart here.
# How the values were obtained:
# [1] = system: dysplastic oral keratinocyte (DOK) cells; test: Growth inhibition (IC50) and combination index in dysplastic oral keratinocyte cells; format: cell-based; details: single agent, read-out: IC50 concentration
# Protocol: Cells were plated in 96-well plates for one day and received drug treatments for 3 days. The plating cell densities were 2,000 cells/well for human cancer cell lines, 3,000 cells/well for tumor sphere cells, and 10,000 cells/well for primary tumor cells. Following the addition of MTT solutions (10 μl, 5 mg/ml), cells were incubated for 4 hours to allow MTT to be metabolized to formazan. Formazan was then dissolved in DMSO and measured by spectrophotometer at 560 nm.
# The tumor growth-inhibitory curves of individual drugs were first measured by the MTT assay over a range of five concentrations with three-fold increment. The half-inhibitory concentrations (IC50) were calculated by Calcusyn program (Biosoft, Ferguson, Mo.). The combined effects were measured by mixing two drugs at the 4:1, 2:1, 1:1, 1:2, or 1:4 ratio of their respective IC50 concentrations. Each combination was tested for its tumor growth-inhibitory effect over a range of five different dosages, and calculated for its CI using the Calcusyn program.
# pre-rRNA transcripts = test: Real-time RT-PCR of pre-rRNA transcripts; format: cell-based
# Protocol: The AC(t) values between the target message and two reference messages (HMG-14 and […]) were determined using the MyiQ single-color real-time PCR detection system and supermix SYBR green reagent. The AAC(t) values were measured from two biological replicates and two technical repeats (n=4). Primer sequences are: SJ1, 5′-[…]-3′ and 5′-[…]-3′; SJ2, 5′-[…]-3′ and 5′-[…]-3′; SJ3, 5′-[…]-3′ and 5′-[…]-3′; and 18S, 5′-[…]-3′ and 5′-[…]-3′.
# The anti-tumor activity of MPA has been linked to nucleolar stress. To investigate whether the synergy of MPA on 5-FU is related to nucleolar stress, Applicants tested the anti-tumor effect of 5-FU in combination with two inhibitors (actinomycin D [AMD] and ADR). Both drugs trigger nucleolar disassembly, but differ in that low-dose AMD (0.05 ug/ml) inhibits the activity of RNA polymerase-I, whereas ADR (2 uM) inhibits the activity of RNA polymerase-II. […] To determine how 5-FU and MPA affect the synthesis or processing of pre-rRNAs, Applicants used real-time RT-PCR to measure the amounts of rRNA transcripts with the splice junction-1 (SJ-1), SJ-2, SJ-3, and 18S rRNA sequences (FIG. 3B). […] By contrast, 5-FU alone increases 47S pre-rRNA and decreases the amount of SJ-3-containing transcripts.
# MDA-MB-231 cells = test: BrdU labeling (cell proliferation) in MDA-MB-231 cells; format: cell-based, human; details: 5-FU 0.15 ug/ml alone or MPA 0.19 uM alone
# Protocol: Primary antibodies used for immunofluorescence included rabbit anti-NS (Ab138, Cocalico), rat anti-BrdU (BU1/75, Accurate), and mouse anti-fibrillarin (38F3, EnCor) antibodies. To measure cell proliferation, cultures were treated with bromodeoxyuridine (BrdU, Accurate, OBT0030) 1 hour before harvest.
# nucleostemin = test: Nucleostemin protein level in MDA-MB-231 cells; format: cell-based, human
# From the text: To test the idea that nucleostemin may be involved in mediating the synergy between MPA and 5-FU, Applicants first confirmed that MPA treatment decreases the protein level of endogenous nucleostemin but not that of GNL3L and Ngp-1, the two nucleostemin homologues in vertebrate (FIG. 4A). […] Applicants noted that cells in the three control groups appear to be more resistant to the 5-FU/MPA-combined treatment than to the parental MDA-MB-231 cells, which may be caused by the G418/puromycin drug selection process.
smiles,measurement,setting,value
"O=c1[nH]cc(F)c(=O)[nH]1 [5-FU, 5-fluorouracil]",IC50,[1]; Keratinocyte,1.67 µg/mL
same,47S pre-rRNA,pre-rRNA transcripts,increases
same,amount of SJ-3-containing transcripts,pre-rRNA transcripts,decreases
same,proliferative rate (BrdU labeling),MDA-MB-231 cells,does not decrease
"COc1c(C)c2c(c(O)c1C/C=C(\C)CCC(=O)O)C(=O)OC2 [MPA, mycophenolic acid]",protein level of endogenous nucleostemin,nucleostemin,decreases
same,IC50,[1]; Keratinocyte,6670 nM
same,"amount of pre-rRNA transcripts (SJ-1, SJ-2, SJ-3, 18S), including 47S pre-rRNA",pre-rRNA transcripts,decrease the amount of pre-rRNA transcripts
same,proliferative rate (BrdU labeling),MDA-MB-231 cells,does not decrease
O=C1[O][Pt]2([NH][C@@H]3CCCC[C@H]3[NH]2)[O]C1=O [oxaliplatin],IC50,[1],830 nM
CC(=O)O[C@H]1C(=O)[C@@]2(C)[C@H]([C@H](OC(=O)c3ccccc3)[C@]3(O)C[C@H](OC(=O)[C@H](O)[C@@H](NC(=O)c4ccccc4)c4ccccc4)C(C)=C1C3(C)C)[C@]1(OC(C)=O)CO[C@@H]1C[C@@H]2O [paclitaxel],IC50,[1]; Keratinocyte,210 nM
